# ChEMBL document CHEMBL1143057, “Small molecule designed to target metal binding site in the alpha2I domain inhibits integrin function” (J Med Chem, 2007)
# The source made the active and inactive calls. The calls are words filed in the database; no cut-off is given here.
# What was measured:
# [1] = molecular target: T1, Integrin alpha-11 (Homo sapiens) (UniProt Q9UKX5); experiment: Inhibition of integrin alpha-11 binding to collagen 1 at 50 uM
# T1 sequence (whole entry): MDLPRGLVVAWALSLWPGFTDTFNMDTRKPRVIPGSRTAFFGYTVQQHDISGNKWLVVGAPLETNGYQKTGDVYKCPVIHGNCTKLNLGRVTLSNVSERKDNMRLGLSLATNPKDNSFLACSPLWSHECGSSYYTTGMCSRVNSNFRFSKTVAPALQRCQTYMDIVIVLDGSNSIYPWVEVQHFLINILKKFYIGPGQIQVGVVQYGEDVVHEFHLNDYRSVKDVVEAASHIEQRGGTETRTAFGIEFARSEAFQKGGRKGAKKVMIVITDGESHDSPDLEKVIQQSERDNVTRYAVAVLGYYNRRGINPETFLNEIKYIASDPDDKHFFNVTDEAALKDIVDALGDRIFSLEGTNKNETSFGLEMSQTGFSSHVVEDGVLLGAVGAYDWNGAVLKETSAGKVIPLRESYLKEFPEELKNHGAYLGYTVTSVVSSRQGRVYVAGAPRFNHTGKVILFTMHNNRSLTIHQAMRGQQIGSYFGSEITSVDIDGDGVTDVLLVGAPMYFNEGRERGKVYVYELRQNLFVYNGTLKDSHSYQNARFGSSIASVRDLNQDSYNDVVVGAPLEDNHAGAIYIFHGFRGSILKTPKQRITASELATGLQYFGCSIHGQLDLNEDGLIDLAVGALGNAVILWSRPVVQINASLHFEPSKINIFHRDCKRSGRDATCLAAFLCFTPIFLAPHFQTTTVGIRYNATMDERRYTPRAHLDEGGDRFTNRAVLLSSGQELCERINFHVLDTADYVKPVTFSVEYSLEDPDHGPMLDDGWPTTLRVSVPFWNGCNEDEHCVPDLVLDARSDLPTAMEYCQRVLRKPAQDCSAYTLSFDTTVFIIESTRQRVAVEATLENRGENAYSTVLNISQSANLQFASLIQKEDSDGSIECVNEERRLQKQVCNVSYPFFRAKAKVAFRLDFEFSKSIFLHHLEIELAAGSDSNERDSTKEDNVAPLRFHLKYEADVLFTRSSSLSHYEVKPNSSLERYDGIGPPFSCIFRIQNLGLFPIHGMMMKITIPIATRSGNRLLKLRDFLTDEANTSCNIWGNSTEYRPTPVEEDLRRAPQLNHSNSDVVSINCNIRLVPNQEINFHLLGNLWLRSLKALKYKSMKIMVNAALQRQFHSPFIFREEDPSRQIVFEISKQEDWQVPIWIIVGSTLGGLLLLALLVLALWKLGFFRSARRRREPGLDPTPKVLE
# CHO [2] = experiment: Cytotoxicity against CHO cells at =< 50 uM; format: cell-based, Cricetulus griseus; settings: chinese hamster
# [3] = molecular target: T2, Integrin alpha-10 (Homo sapiens) (UniProt O75578); experiment: Inhibition of integrin alpha-10 binding to collagen 1 at 50 uM
# T2 sequence (whole entry): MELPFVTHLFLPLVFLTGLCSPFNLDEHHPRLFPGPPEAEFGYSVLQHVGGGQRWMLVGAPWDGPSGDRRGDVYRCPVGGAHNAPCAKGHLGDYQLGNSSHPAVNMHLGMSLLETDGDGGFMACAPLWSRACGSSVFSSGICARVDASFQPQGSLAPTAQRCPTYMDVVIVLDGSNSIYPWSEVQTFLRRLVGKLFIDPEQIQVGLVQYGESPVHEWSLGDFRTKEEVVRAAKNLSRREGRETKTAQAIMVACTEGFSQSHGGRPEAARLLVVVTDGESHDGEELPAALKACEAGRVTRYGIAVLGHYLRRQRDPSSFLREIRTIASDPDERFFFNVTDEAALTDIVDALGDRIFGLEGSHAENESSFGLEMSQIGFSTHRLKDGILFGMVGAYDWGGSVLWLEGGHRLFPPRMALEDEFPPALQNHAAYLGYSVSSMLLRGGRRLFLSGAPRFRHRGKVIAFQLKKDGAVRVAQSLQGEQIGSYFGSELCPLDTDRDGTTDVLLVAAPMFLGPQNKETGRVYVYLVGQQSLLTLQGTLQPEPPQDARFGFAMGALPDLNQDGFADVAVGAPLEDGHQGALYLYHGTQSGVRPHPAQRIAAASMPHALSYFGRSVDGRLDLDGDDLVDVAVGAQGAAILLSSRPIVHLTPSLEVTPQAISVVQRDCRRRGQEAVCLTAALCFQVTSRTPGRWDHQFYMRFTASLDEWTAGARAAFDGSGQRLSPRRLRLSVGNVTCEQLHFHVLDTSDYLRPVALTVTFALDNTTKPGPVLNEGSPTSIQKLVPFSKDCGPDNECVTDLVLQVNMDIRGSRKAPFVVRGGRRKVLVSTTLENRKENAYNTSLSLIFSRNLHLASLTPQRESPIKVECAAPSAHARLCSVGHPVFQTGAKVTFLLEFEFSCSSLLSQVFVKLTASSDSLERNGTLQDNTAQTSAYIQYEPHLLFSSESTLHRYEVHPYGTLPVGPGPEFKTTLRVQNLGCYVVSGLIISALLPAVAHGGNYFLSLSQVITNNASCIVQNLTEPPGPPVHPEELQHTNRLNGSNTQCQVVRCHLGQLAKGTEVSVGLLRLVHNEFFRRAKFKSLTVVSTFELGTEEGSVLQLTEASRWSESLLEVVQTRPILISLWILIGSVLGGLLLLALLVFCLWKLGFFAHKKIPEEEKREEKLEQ
# CHO [4] = experiment: Inhibition of integrin alpha-2 expressing CHO cell adhesion to collagen 1 at 10 uM; format: functional; settings: Cricetulus griseus
# [5] = molecular target: Integrin alpha-2 (Homo sapiens) (UniProt P17301); experiment: Inhibition of integrin alpha-2 domain binding to collagen 1 by Europium-labeled anti-GST assay relative to control; settings: concentration not given here
# [6] = molecular target: Integrin alpha-1 (Homo sapiens) (UniProt P56199); experiment: Inhibition of integrin alpha-1 binding to collagen 1 at 50 uM
# Integrin alpha-1 (Homo sapiens), sequence (P56199 whole entry): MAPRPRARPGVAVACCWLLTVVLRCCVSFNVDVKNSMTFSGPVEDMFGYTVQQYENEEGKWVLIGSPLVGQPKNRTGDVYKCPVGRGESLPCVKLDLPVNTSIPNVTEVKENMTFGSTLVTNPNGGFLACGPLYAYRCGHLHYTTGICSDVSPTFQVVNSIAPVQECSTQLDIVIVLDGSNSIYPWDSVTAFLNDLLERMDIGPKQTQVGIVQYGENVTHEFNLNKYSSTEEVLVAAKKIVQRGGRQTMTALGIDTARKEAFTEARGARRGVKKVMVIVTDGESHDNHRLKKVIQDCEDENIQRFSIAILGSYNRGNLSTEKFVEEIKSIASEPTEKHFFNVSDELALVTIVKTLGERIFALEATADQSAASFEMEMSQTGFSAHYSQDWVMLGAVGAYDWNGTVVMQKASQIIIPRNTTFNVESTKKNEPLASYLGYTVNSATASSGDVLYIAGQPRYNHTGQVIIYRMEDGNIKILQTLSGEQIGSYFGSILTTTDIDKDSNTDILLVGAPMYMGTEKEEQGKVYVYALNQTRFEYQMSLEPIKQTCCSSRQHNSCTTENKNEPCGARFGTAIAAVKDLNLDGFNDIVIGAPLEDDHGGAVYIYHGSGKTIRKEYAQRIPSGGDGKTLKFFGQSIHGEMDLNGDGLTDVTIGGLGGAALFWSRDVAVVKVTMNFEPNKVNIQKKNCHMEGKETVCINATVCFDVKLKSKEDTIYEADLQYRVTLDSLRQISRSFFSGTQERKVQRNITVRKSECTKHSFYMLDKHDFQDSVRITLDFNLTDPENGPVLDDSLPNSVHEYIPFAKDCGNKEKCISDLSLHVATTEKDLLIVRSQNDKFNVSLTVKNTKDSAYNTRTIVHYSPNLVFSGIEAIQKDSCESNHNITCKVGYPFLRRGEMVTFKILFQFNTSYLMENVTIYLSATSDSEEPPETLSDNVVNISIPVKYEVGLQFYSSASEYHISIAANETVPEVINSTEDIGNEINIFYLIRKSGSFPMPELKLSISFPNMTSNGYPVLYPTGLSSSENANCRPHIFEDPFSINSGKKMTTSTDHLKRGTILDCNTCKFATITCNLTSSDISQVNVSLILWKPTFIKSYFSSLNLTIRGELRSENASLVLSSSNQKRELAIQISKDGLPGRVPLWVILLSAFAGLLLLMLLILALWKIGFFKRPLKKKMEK
# [7] = molecular target: Integrin alpha-2 (Homo sapiens) (UniProt P17301); experiment: Inhibition of integrin alpha-2 binding to collagen 4 at 50 uM
# [8] = molecular target: Integrin alpha-1 (Homo sapiens) (UniProt P56199); experiment: Inhibition of integrin alpha-1 binding to collagen 4 at 50 uM
# Integrin alpha-2 = molecular target: T3, Integrin alpha-2 (Homo sapiens, UniProt P17301); experiment: Inhibition of integrin alpha-2 domain binding to collagen 1 by Europium-labeled anti-GST assay
# T3 sequence (P17301 whole entry): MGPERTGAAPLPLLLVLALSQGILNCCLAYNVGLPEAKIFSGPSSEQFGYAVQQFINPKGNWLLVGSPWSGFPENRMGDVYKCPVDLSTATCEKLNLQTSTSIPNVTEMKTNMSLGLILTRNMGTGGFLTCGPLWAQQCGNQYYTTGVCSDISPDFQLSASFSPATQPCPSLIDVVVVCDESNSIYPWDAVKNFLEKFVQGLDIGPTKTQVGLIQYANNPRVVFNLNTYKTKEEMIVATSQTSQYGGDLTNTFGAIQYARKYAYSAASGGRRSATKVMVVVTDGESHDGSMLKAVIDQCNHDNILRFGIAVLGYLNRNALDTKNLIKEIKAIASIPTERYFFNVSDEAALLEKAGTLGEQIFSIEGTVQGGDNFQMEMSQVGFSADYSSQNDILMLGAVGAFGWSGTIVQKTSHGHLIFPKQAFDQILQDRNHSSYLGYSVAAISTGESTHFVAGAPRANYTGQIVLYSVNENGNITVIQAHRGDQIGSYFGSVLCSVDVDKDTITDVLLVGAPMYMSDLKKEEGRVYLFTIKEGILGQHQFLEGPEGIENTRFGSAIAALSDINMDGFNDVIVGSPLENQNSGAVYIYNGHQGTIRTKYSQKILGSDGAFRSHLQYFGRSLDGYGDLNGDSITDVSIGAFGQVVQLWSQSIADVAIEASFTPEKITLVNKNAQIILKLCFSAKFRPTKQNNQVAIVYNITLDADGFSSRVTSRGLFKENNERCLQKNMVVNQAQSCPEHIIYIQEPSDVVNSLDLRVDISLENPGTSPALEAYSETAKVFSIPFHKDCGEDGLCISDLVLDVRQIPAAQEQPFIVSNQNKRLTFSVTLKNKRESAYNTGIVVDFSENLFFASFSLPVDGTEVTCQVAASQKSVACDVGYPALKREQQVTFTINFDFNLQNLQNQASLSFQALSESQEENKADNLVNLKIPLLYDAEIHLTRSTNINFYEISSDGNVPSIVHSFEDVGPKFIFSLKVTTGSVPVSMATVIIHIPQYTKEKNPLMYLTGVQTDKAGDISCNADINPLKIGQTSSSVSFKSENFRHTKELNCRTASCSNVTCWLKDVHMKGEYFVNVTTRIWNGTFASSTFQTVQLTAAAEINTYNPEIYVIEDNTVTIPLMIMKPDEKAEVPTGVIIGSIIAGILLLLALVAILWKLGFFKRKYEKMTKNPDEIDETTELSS
# CHO [9] = experiment: Cytotoxicity against CHO cells at =< 200 uM; format: cell-based, Cricetulus griseus; settings: chinese hamster
# [10] = Inhibition of integrin alpha-2 E318W mutant binding to collagen 1 by Europium-labeled anti-GST assay; parameters: species or system Homo sapiens
# CHO [11] = experiment: Inhibition of integrin alpha2 Y285F beta-1 mutant binding to collagen 1 in CHO cells; format: cell-based; settings: Homo sapiens
# [12] = Inhibition of integrin alpha-2 E318W mutant binding to collagen 4 by Europium-labeled anti-GST assay; parameters: species or system Homo sapiens
inhibition [5] [%],Compound,Activity (CHO [2]),inhibition at 10 µM (CHO [4]) [%],Activity (CHO [9]),also measured
90,COC(=O)c1c(C(C)C)cc(O)c2c(O)c3c(c(O)c12)C(=O)c1cccc(O)c1C3=O,Non-toxic,40,,Activity [1]: Active; Activity [3]: Active
100,CCc1cc(O)c2c(O)c3c(c(O)c2c1C(=O)OC)C(=O)c1cccc(O)c1C3=O [ANHYDROMAGGIEMYCIN],Non-toxic,35,,IC50 [10]: 160 µM; inhibition (CHO [11]): -3.3%; IC50 [12]: 131 µM

# The remaining lines, values behind:
Compound,inhibition [5] [%],Activity (CHO [2]),inhibition at 10 µM (CHO [4]) [%],Activity (CHO [9]),also measured
CCc1cc(O)c2c(O)c3c(cc2c1C(=O)OC)C(=O)c1cccc(O)c1C3=O,,,,,Activity [6]: Active; Activity [7]: Active; Activity [8]: Active; IC50 (Integrin alpha-2): 50 µM
CCc1cc(NCCO)c2c(O)c3c(c(O)c2c1C(=O)OC)C(=O)c1cccc(O)c1C3=O,0,,30,Non-toxic,
CCC1(O)CC(=O)c2c(O)c3c(c(O)c2C1C(=O)OC)C(=O)c1cccc(O)c1C3=O (stereo unspecified) [MAGGIEMYCIN],65,,10,Non-toxic,
